Test results reported in patent US20110236822A1, “METHOD OF TREATING SEASONED DEVELOPER SOLUTION” (priority 2010, published 2011).
Where two headings read alike, the source gives them in different places. Values belong to the compound of their own block, whether it stands above or below them.

How the values were obtained:
[1] = test system: aquatic life; conditions: from MSDS sheets; cited from earlier work
[2] = Treatment of IR dye with oxidative and reducing reagents to degrade the dye (TABLE I); assay type: physicochemical
[3] = test system: humans; conditions: from MSDS sheets; cited from earlier work
[4] = Treatment of seasoned developer solution with Chlorox bleach solution, residual dye by FTIR; assay type: physicochemical; conditions: Kodak 955 Developer seasoned, 15 ml bleach diluted to 6%, 2000 rpm
Protocol: An imageable layer coating formulation was prepared with the components in TABLE II below in a solvent mixture of methyl ethyl ketone:water:isopropyl alcohol (70:20:10 weight ratio). The formulation was coated onto a sulfuric acid anodized aluminum substrate and dried in a conveyor oven at 100° C. for 1 minute to provide an imageable layer with a dry coating weight of 1.60 g/m^2. The resulting printing plate precursors were imaged at 110 mJ/cm^2 and 11 Watt using a Kodak 3244x platesetter. The imaged precursors (approx. 11 m^2) were manually developed in 1 liter of Kodak 955 Developer to produce seasoned developer solution (3).
Samples (each 50 ml) of seasoned developer solution (3) were diluted with 150 ml of water and treated with 15 ml of Chlorox® bleach solution diluted to 6% by drop wise addition while stirring at 2000 rpm. The stirring continued for another 15 minutes after the addition. The green color of the seasoned developer solution samples disappeared, forming pale yellow, slightly turbid solutions. […] The extract was concentrated about 50 times and analyzed by FTIR. […]
An imageable layer coating formulation was prepared using the components of TABLE II above except that the IR dye was S0507 from Few Chemicals GmbH. […] The extract was concentrated 50 times by evaporation under nitrogen flow and spotted onto a sodium chloride disk, dried, and analyzed by FTIR. […]

[5] = Treatment of IR dye 66e in methanol with Chlorox bleach solution (qualitative, titration, LC-MS); assay type: physicochemical
[6] = Treatment of seasoned developer solution with Chlorox bleach solution, residual dye by LC-MS; assay type: physicochemical; conditions: Kodak 1080 Developer seasoned, diluted, 8 ml bleach diluted to 6%, 6000 rpm
Protocol: In this example, seasoned developer solutions containing IR dye 66e were treated with commercial Chlorox® bleach solution and the degradation products were examined by LC-MS. The seasoned developer solutions were prepared in the lab after development of imaged commercially available, negative-working printing plate precursors containing IR dye 66e with Kodak 1080 Developer under conditions that account for real-life situation at the end of the processor cycle when the seasoned developer solution is being changed. The following calculation of the coating concentration in the seasoned developer solution at the end of the processing cycle takes into account that a Mercury 1035 processor will have a cycle of 3150 m^2 plates/9 gal (34 liters) of developer solution that is the tank capacity. […]
To account for the lower limit, solution C was prepared by dissolving 1.1 m^2 of printing plate coating in 100 ml of developer solution. […] The precipitate (2) and the supernatant liquid (2) were analyzed by LC-MS for the IR dye 66e using the equipment and method described above in Comparative Example 3.
Precipitate (2) was extracted in acetonitrile:isopropanol at 2.5 mg/ml. […] This reference solution (standard) was analyzed to determine the sensitivity of the instrument. […]

[7] = Attempt to precipitate the anionic chromophore of IR Dye I as insoluble salts; assay type: physicochemical; conditions: IR Dye I 0.3% in methanol; 3% solution of compound in water
[8] = Attempt to precipitate the cationic chromophore of IR dye 66e as insoluble salts with organic acids; assay type: physicochemical; conditions: IR dye 66e 0.3% in methanol; aqueous organic acid at 3% concentration
[9] = 0.3% IR dye 66e in methanol, 23° C.
[10] = after titration with diluted bleach

Compound: N.N.O=S(=O)(O)OOS(=O)(=O)O [Ammonium persulfate]
toxicity to aquatic life [1]: toxic to aquatic life
Change Noticed [2, 9]: Dye bleached pink

Compound: O=[N+]([O-])[O-].O=[N+]([O-])[O-].O=[N+]([O-])[O-].O=[N+]([O-])[O-].O=[N+]([O-])[O-].O=[N+]([O-])[O-].[Ce+4].[NH4+].[NH4+] [Ceric ammonium nitrate]
Change Noticed [2]: Dye bleached pink

Compound: O=C([O-])c1ccccc1.[Cu+] [Cu(I) benzoate]
Change Noticed [2]: Dye bleached pink

Compound: [Cl][Fe]([Cl])[Cl] [Ferric chloride]
toxicity to aquatic life [1]: toxic to aquatic life
Change Noticed [2, 9]: Black

Compound: [Cl][Fe][Cl] [Ferrous chloride]
toxicity to aquatic life [1]: toxic to aquatic life
Change Noticed [2, 9]: Black

Change Noticed ([2]; 0.3% IR dye 66e in methanol, NaOH, room temperature): Pink precipitate
Change Noticed ([2]; 0.3% IR dye 66e in methanol, Sulfuric acid, 1%, 23° C.): Black
Change Noticed ([2]; 0.3% IR dye 66e in methanol, Sulfuric acid, 1%, Heat): Dye bleached pink
Compound: OO [Hydrogen peroxide]
carcinogenic and mutagenic potential for humans [3]: potential carcinogenic and mutagenic for humans

Compound: CC(=O)OCCN1/C(=C/C=C2\CCC(/C=C/C3=[N+](CCOC(C)=O)c4ccc5cc(S(=O)(=O)O)ccc5c4C3(C)C)=C2N(c2ccccc2)c2ccccc2)C(C)(C)c2c1ccc1cc(S(=O)(=O)[O-])ccc21 [IR Dye I]
residual dye in extract of sediment (3) or supernatant liquid (3) by FTIR [4]: No residual IR Dye I was found

Compound: CN1/C(=C/C=C2\CCCC(/C=C/C3=[N+](C)c4ccccc4C3(C)C)=C2Sc2ccccc2)C(C)(C)c2ccccc21 [IR dye 66e]
change of dye solution on bleach treatment ([5]; 0.3% in methanol, liberal amount of Chlorox bleach solution (3.6% sodium hypochlorite), room temperature, shaking): color change from green to light yellow and a yellow precipitate was formed
change of dye solution, incomplete degradation ([5]; 20 ml solution B titrated with 4.8 ml of 5% bleach (insufficient hypochlorite)): became reddish-brown
residual dye in filtrate (1) by LC-MS [5, 10]: did not contain IR dye 66e
residual dye in precipitate (1) by LC-MS [5, 10]: gave a signal for the IR dye 66e
original dye co-precipitated with its degradation products ([5]; estimated, precipitate (1)): about 1%
undiluted Chlorox bleach solution needed to bleach 1 mg of dye ([5]; titration, per 1 mg dye, magnetic stirrer): 0.007463 mL
Chlorox bleach solution needed for degradation of 1 g of dye ([5]; titration, per 1 g dye): 7.46 mL
residual dye in supernatant liquid (2) by LC-MS [6]: No trace of IR dye 66e was found

Compound: O=C1CCC(=O)N1Br [N-Bromo-succinimide]
Change Noticed [2]: Dye bleached pink

Compound: O=S([O-])[O-].[Na+].[Na+] [Na sulfite]
Change Noticed [2]: Some bleaching,

Compound: [O-][Cl+3]([O-])([O-])O [Perchloric acid]
Change Noticed [2]: Dye bleached pink

Compound: O=S(=O)([O-])OOS(=O)(=O)[O-].[K+].[K+] [Potassium persulfate]
Change Noticed [2]: Brown

Compound: O=S([O-])O.[Na+] [Sodium hydrogen sulfite]
Change Noticed [2]: No reaction

Change Noticed ([2]; 0.3% IR dye 66e in methanol, Heat): No reaction
Compound: O=S([O-])S(=O)(=O)[O-].[Na+].[Na+] [Sodium metabisulfite]

Compound: CCCCCCCCCCCCCCCCCC[N+](C)(C)Cc1ccccc1.[Cl-] [benzyl stearyl dimethyl ammonium chloride]
precipitation of IR Dye I [7]: None of these compounds precipitated IR Dye I

Compound: C[N+](C)(C)Cc1ccccc1.[Cl-] [benzyl trimethyl ammonium chloride]
precipitation of IR Dye I [7]: None of these compounds precipitated IR Dye I

Compound: naphthalene sulfonic acid
precipitation of IR dye 66e [8]: None of these organic acids were useful to precipitate the IR dye 66e
